Laboratory results reported in PMC5515982, “Hair analysis for the biomonitoring of pesticide exposure: comparison with blood and urine in a rat model” (Archives of Toxicology, 2016).

Tests used:
Format in all cases: in vivo, rat
[1] = Concentration of pesticides and metabolites in 24-h urine of rats after 90-day gavage exposure to a pesticide mixture; conditions: for Slope (linear fit), concentration in urine versus level of exposure: exposure expressed as mg/kg per day, concentration as ng/mL, detected values only; for Concentration range in urine (detection): ND = not detected, whatever the level of exposure
Protocol: (§1) Eight rats were randomly assigned to each of the experimental groups. A low-calorie water gel that contained the pesticides was administered via gavage to these rats three times per week for 90 days. The doses of the pesticides mixture used for exposure were 4, 10, 20, 40, 100, 200, and 400 µg/kg of body weight. The exposure range was set as follows: The lowest dose was the lowest level allowing the detection of pesticides in hair after a 90-day exposure, based on preliminary experiments not detailed here. Testing lower levels would not have been relevant because some compounds would not be detected anymore (analytical limitation). In addition, for some other compounds, no differences were detected in the current experiment between the lowest level of exposure and the background exposure of the controls. The highest dose was set according to toxicity of compounds, which corresponded to 1/20 of the lowest LD50 (carbofuran). The animals were weighed before each administration in order to adapt the amount of pesticide-containing mixture to the animals’ weight.
(§2) The animals were shaved before the experiment began to ensure that the hair collected at the end of the study accurately reflected the 90-day period of exposure. White and black hairs were collected separately, placed in aluminum foil, and stored at −20 °C until analysis. Blood was collected in EDTA tube from the tail vein, 3 h after oral administration on Day 90. Each sampling (500–750 µL) was immediately centrifuged at 5000×g for 3 min at room temperature, and plasma was separated and stored at −80 °C before analysis. For urine collection, the rats were placed in individual metabolic cages (Type 304 stainless steel, Techniplast, Zwaag, Netherlands) immediately after gavage for 24 h (from Day 88 to Day 89). The urine was collected in refrigerated tubes over a 24-h period and was weighed before storage at −20 °C.
(§3) Depending on the compounds, only parent pesticides, only metabolites, or both parent and metabolites were analyzed in the biological matrices. The chemicals were analyzed as previously described (Chata et al. [2016]; Hardy et al. [2015]). Despite the different nature of the biological matrices analyzed (liquid vs. solid), method protocols were developed to ensure similarity so they could be reliably compared to the information obtained from each matrix, thereby ensuring that differences were not likely attributable to analytical bias. […] Because analytical background noise was absent from the chromatograms because tandem mass spectrometry was used, the approaches based on background noise for determining the limit of detection (LOD) were not applicable. The LOD was therefore determined as the lowest concentration that was detected in the samples analyzed during this study. Selectivity was ensured by analyte retention time and by the quantification transition to confirmation transition ratio that had to be lower than the 20% difference from the ratio obtained with standard compounds. The LOD ranged from 0.02 pg/mg for β-endosulfan to 2.7 pg/mg for dichlorodiphenyltrichloroethane (p,p′-DDT) in hair, from 0.2 pg/mL for trifluralin to 13.6 ng/mL for 2-isopropoxyphenol (2-IPP) in urine, and from 2.4 pg/mL for β-endosulfan to 679 pg/mL for p,p′-DDT in plasma. Because the analysis of parent pesticides and metabolites was conducted on the same hair sample, the addition of parent organophosphate isotope-labeled analog standards was not possible because their degradation into non-labeled dialkyl phosphate (DAP) during the analytical procedure would have hindered the analysis of DAP due to exposure. In hair, only organophosphate metabolites (not parents) were therefore quantified, and only qualitative results were obtained for parents.
(§4) The association between the level of exposure and the analyte concentration in the matrix (i.e., hair, urine, and plasma) was assessed by the Pearson product-moment correlation coefficient (R Pearson). […]

[2] = Influence of hair pigmentation: concentration in white hair versus pigmented hair; conditions: slope close to 1 = poor influence of pigmentation
Protocol: as §2
The influence of hair pigmentation on pesticide incorporation was assessed by comparing the concentration detected in white hair versus pigmented hair which were collected and analyzed separately from each animal. […] For the majority of the chemicals tested during the current study, pigmentation seemed to have a very limited effect on the concentration in hair, and only few compounds seemed to be pigmentation sensitive.

[3] = Concentration of pesticides and metabolites in hair of rats after 90-day gavage exposure to a pesticide mixture; conditions: for Slope (linear fit), concentration in hair versus level of exposure: exposure expressed as mg/kg per day, concentration as pg/mg, detected values only
Protocol: as §1, §2, §3, §4

[4] = Concentration of pesticides and metabolites in plasma of rats after 90-day gavage exposure to a pesticide mixture; conditions: for Slope (linear fit), concentration in plasma versus level of exposure: exposure expressed as mg/kg per day, concentration as ng/mL, detected values only; for Concentration range in plasma (detection): ND = not detected, whatever the level of exposure
Protocol: as §1, §2, §3, §4

SMILES | Slope (linear fit), concentration in urine versus level of exposure [1] | Slope, concentration in white hair versus pigmented hair [2] | Slope (linear fit), concentration in hair versus level of exposure [3] | Slope (linear fit), concentration in plasma versus level of exposure [4] | also measured
CC(C)Oc1ccccc1O [2-IPP, 2-isopropoxyphenol] | 1.0 E + 06 | 0.692 | 26.3 | 10.4 | 
O=C(O)c1cccc(Oc2ccccc2)c1 [3-PBA, 3-phenoxybenzoic acid] | 1.5 E + 05 | 1.070 | 7.08 | 422 | 
CC1(C)Cc2cccc(O)c2O1 [Carbofuran phenol] | 1.0 E + 06 | 1.109 | 35.10 | 1.73 | 
CC1(C)C(C=C(Cl)Cl)C1C(=O)O (centres unmarked) [Cl2CA, 3-(2,2-dichlorovinyl)-2,2-dimethylcyclopropane-1-carboxylic acid] | 1.0 E + 06 | 0.498 | 49.20 | 139 | 
CC1(C)C(C=C(Cl)C(F)(F)F)C1C(=O)O (centres unmarked) [ClCF3CA, 3-(2-chloro-3,3,3-trifluoro-1-propenyl)-2,2-dimethylcyclopropane carboxylic acid] | 1.6 E + 05 | 0.220 | 5.22 | 9.79 | 
CC1(C)C(C=C(Cl)Cl)C1C(=O)OC(C#N)c1cccc(Oc2ccccc2)c1 (centres unmarked) [Cypermethrin] |  | 0.495 |  | 10.1 | Exposure level from which detected in hair [3]: 200 µg/kg; Exposure level from which detected in plasma [4]: 10 µg/kg
CCOP(O)(=S)OCC [DETP, diethylthiophosphate] | 9.9 E + 05 | 0.608 | 10.47 | 3.26 | 
CCOP(=S)(OCC)Oc1cc(C)nc(C(C)C)n1 [Diazinon] |  |  |  |  | Concentration range in plasma (detection) [4]: not detected
ClC1=C(Cl)[C@]2(Cl)[C@@H]3[C@@H]4C[C@@H]([C@H]5O[C@@H]45)[C@@H]3[C@@]1(Cl)C2(Cl)Cl [Dieldrin] | 2 069 | 1.000 | 427.8 | 305 | 
O=C(Nc1ccc(F)cc1F)c1cccnc1Oc1cccc(C(F)(F)F)c1 [Diflufenican] | 99 | 0.937 | 35.94 | 15.2 | Exposure level from which detected in urine [1]: 20 µg/kg
N#Cc1nn(-c2c(Cl)cc(C(F)(F)F)cc2Cl)c(N)c1S(=O)(=O)C(F)(F)F [Fipronil sulfone] | 10 650 | 1.114 | 772 | 976 | 
N#Cc1nn(-c2c(Cl)cc(C(F)(F)F)cc2Cl)c(N)c1[S+]([O-])C(F)(F)F (centres unmarked) [Fipronil] | 2 016 | 1.017 | 31.5 |  | Exposure level from which detected in urine [1]: 10 µg/kg
CC(C)Oc1cc(-n2nc(C(C)(C)C)oc2=O)c(Cl)cc1Cl [Oxadiazon] |  | 0.860 | 11.45 | 38.5 | Concentration range in urine (detection) [1]: not detected
Oc1c(Cl)c(Cl)c(Cl)c(Cl)c1Cl [Pentachlorophenol] | 82 841 | 0.705 | 169.0 | 2039 | 
CC1(C)C(C=C(Cl)Cl)C1C(=O)OCc1cccc(Oc2ccccc2)c1 (centres unmarked) [Permethrin] |  |  |  | 1.04 | Exposure level from which detected in plasma [4]: 100 µg/kg
CCCC1COC(Cn2cncn2)(c2ccc(Cl)cc2Cl)O1 (centres unmarked) [Propiconazole] |  | 0.825 | 6.47 |  | Concentration range in urine (detection) [1]: not detected; Concentration range in plasma (detection) [4]: not detected
Oc1nc(Cl)c(Cl)cc1Cl [TCPy, 3,5,6-trichloro-2-pyridinol] | 2.5 E + 06 | 0.435 | 85.6 | 109 | 
CCCN(CCC)c1c([N+](=O)[O-])cc(C(F)(F)F)cc1[N+](=O)[O-] [Trifluralin] | 4 | 0.688 | 1.107 | 1.57 | Slope (linear fit), concentration in hair versus level of exposure ([3]; listed as trifluralin): 1.11
Clc1ccc(C(c2ccc(Cl)cc2)C(Cl)Cl)cc1 [p,p′-DDD, p,p′-dichlorodiphenyldichloroethane] |  | 0.673 | 24.0 | 13.1 | Concentration range in urine (detection) [1]: not detected; Exposure level from which detected in hair [3]: 40 µg/kg per day; Exposure level from which detected in plasma [4]: 40 µg/kg
ClC(Cl)=C(c1ccc(Cl)cc1)c1ccc(Cl)cc1 [p,p′-DDE, p,p′-dichlorodiphenyldichloroethylene] |  | 1.287 | 273.5 | 289 | Exposure level from which detected in urine [1]: 200 µg/kg
Clc1ccc(C(c2ccc(Cl)cc2)C(Cl)(Cl)Cl)cc1 [p,p′-DDT, dichlorodiphenyltrichloroethane] |  | 0.876 | 184.7 | 175 | Exposure level from which detected in urine [1]: 200 µg/kg; Exposure level from which detected in hair [3]: 20 µg/kg per day
O=S1OC[C@@H]2[C@H](CO1)[C@]1(Cl)C(Cl)=C(Cl)[C@]2(Cl)C1(Cl)Cl (stereo partly drawn) [β-Endosulfan, β-endosulfan] |  | 0.965 | 2.71 | 1.50 | Concentration range in urine (detection) [1]: not detected
CC1(C)C(/C=C(\Cl)C(F)(F)F)C1C(=O)OC(C#N)c1cccc(Oc2ccccc2)c1 (centres unmarked) [λ-Cyhalothrin] |  | 1.079 | 5.050 | 116 | Exposure level from which detected in hair [3]: 20 µg/kg; Concentration in plasma relative to cypermethrin ([4]; at equal level of exposure): approximately 10 times; Concentration in plasma relative to permethrin ([4]; at equal level of exposure): approximately 100 times; Exposure level from which detected in plasma [4]: 4 µg/kg
